Read-outs that look alike come from different tables or passages of the source.
Key:
[1] = Source text: Chemical Drug Class 1 New Drug
A Toxicity Test in Beagle Dogs Administered ZG0128 by Oral Gavage for 28 […]
The study consisted of 4 groups, including the control group and dose groups of […]
active ingredient ZG0163). Each group contained 10 dogs, with 5 male dogs and 5 female dogs. The dogs in each group were orally administered with control (empty capsule) or the corresponding doses of ZG0128 once a day for 28 consecutive days, followed by 28 days for recovery after drug discontinuation. The day of the first dose is defined as day 1 of the dosing period. During the dosing period and the recovery period, the general conditions of the dogs in different groups were observed every day.
The body weight and food intake of the dogs were measured twice a week during the dosing period and once a week during the recovery period, respectively. At 2-3 h after the dosing on day 14, and 2-3 h after the last dose as well as on the last day of the recovery period. The lead II electrocardiogram, blood pressure and body temperature (anal temperature) were measured. One ophthalmic examination and routine urinalysis were arranged at the end of dosing and recovery periods, respectively. Hematology and blood biochemistry tests were performed on day 15 and the end of the dosing and recovery periods, respectively.
In all other groups, 6 and 4 dogs
(male:female=1:1) were dissected at the end of dosing and recovery periods, respectively. After the dogs were euthanized, bone marrow smear, gross anatomy, organ weight measurement and histopathological examination of tissue samples were performed. Blood samples were collected from dogs before the first/last dose and 0.5, 1, 2, 4, 6, 10, 24 h after drug administration in ZG0128 dose groups. Blood samples were collected before the first/last dose and 2 h after the first/last dose, respectively.
LC-MS/MS was used to measure the concentration of the original drug ZG0163 and […]
the amide hydrolysis metabolite ZG0245 in blood samples at various time points and to calculate AUClast, Cmax, Tmax, and other toxicokinetic parameters.

[2] = 28-day oral gavage toxicity; assay type: in vivo, Wistar rats; details: for drug exposure: 24.4 mg/kg
Procedure: Suzhou Zelgen Biopharmaceuticals Co., Ltd. Jaktinib Hydrochloride Tablets Chemical Drug Class 1 New Drug […]
active ingredient ZG0163). The control group contained 36 Wistar rats (6 rats were used for the toxicokinetic test) and each group of ZG0128 contained 54 rats (24 rats in each group were used for the toxicokinetic test), with half males and half females. The rats in each group were given the control substance (0.5% CMC-Na solution) or the corresponding concentrations of ZG0128 in a 10 mL/kg volume by oral gavage once a […]
The day of the first dose […]
is defined as day 1 of the dosing period, while the day of anatomy after the last dose is defined as day 1 of the recovery period. During the dosing period and the recovery […]
the body weight and food intake of the rats were measured twice a week during the […]
recovery periods, respectively. In the 219.6 mg/kg group, 12 (3 females, 9 males) and […]
and recovery periods, respectively. The rats in each group were anesthetized to collect blood samples for hematology and blood biochemistry tests. After the rats were […]
histopathological examination of tissue samples were performed. For the rats in […]
ZG0128 groups used for toxicokinetic test, their blood samples were collected before the first dose and last dose as well as 0.5, 1, 2, 3, 4, 6, 10, and 24 h after the first dose and last dose. For the rats in the control group, their blood samples were collected before the first dose and last dose and 3 h after the first dose and last dose, respectively.
LC-MS/MS was used to measure the concentrations of the original drug ZG0163 and its amide hydrolysis metabolite ZG0245 in the blood samples collected at various time […]
tissues, spleen, thymus, and bone marrow), digestive system (gastrointestinal tract, pancreas, and submandibular gland), reproduction system, kidney, and bones. The drug caused abnormal indicators related to liver, renal, and pancreatic functions, as well as decreased lymphocytes and platelets. At the dose of 73.2 mg/kg, some of the above lesions could be observed, but the severity of the lesions was mild. After drug discontinuation, the lesions in the submandibular gland, testis, and epididymis were still visible in 73.2 and 219.6 mg/kg groups, and the severity of the lesions was not […]
disappeared after drug discontinuation.
In the dose range of 24.4 to 219.6 mg/kg, the exposure to ZG0128 and its metabolite ZG0245 in female and male rats increased in proportion to the dose, and no significant gender difference was observed. After 28 days of consecutive administration, […]
both female and male rats of each dose group.
After the Wistar rats were given 24.4, 73.2, and 219.6 mg/kg of ZG0128 by oral […]
mg/kg. At this dose, the drug exposure dose in female rats on the first day of dosing […]
10124 h•ng/mL in male rats. On day 28 of dosing, the drug exposure dose in female

[3] = PK, 7-day intragastric dosing; assay type: in vivo, rats; details: for AUC0-t / AUC0-∞ / Cmax / Tmax / t1/2: 30.5 mg/kg (multiple dose)
Procedure: After 7 consecutive days of continuous intragastric administration (30.5 mg/kg once a day) of ZG0128 in rats, the plasma concentration reached a steady state on day […]
values obtained after the single-dose administration, respectively. The Cmax and AUC0-t of the metabolite ZG0245 were 1.19 and 1.52 times the values obtained after the single-dose administration, respectively. […]
consecutive days of administration, there was no significant accumulation of ZG0163 and the metabolite ZG0245 in rats. The pharmacokinetic parameters obtained after […]
Table 12. Pharmacokinetic parameters of ZG0163 in rats given different doses of ZG0128 via oral gavage (n = 6, male:female=1:1).
Dosage Gender Tmax Cmax AUC0-t AUC0-∞ MRT t1/2

[4] = 26-week oral gavage toxicity; assay type: in vivo, Wistar rats
Procedure: Suzhou Zelgen Biopharmaceuticals Co., Ltd. Jaktinib Hydrochloride Tablets Chemical Drug Class 1 New Drug
Wistar rats were given 4, 12, or 30 mg/kg of ZG0128 via oral gavage once a day for 26 consecutive weeks, followed by 28 days for recovery after drug discontinuation.
Only the 30 mg/kg dose caused a slight decrease in lymphocyte counts, which might be related to the pharmacological effects of ZG0128. The lymphocyte counts were back to normal by the end of recovery period. No other obvious abnormalities related to the […]
conditions, body weight, ophthalmologic examination, blood biochemistry, blood coagulation, routine urinalysis, gross anatomy and histopathological examination during the trial. The no observed adverse effect level (NOAEL) was 30 mg/kg. At this dose, the drug exposure was 52697 h•ng/mL (based on the active ingredient ZG0163) in female rats and 67133 h•ng/mL in male rats on the first day of dosing, and on day 182 of dosing the drug exposure was 75339 h•ng/mL (based on the active ingredient ZG0163) in female rats and 45024 h•ng/mL in male rats. […]

Compound: Cl.Cl.O.[2H]C1([2H])COCC([2H])([2H])N1c1ccc(Nc2nccc(-c3ccc(C(=O)NCC#N)cc3)n2)cc1 [ZG0128, Jaktinib Dihydrochloride Monohydrate]
- NOAEL ([1]; 28 days): 18.3 mg/kg
- dose causing death ([1]; 28 days): 195.2 mg/kg
- highest non-severely toxic dose (HNSTD) ([1]; dog, in vivo): 61 mg/kg
- highest non-severely toxic dose (HNSTD) ([2]; 28 consecutive days): 24.4 mg/kg
- dose causing dying or death ([2]; 28 days): 219.6 mg/kg
- day on which steady state was reached ([3]; 30.5 mg/kg once a day): 5 days
- NOAEL ([4]; rat, in vivo): 30 mg/kg

Compound: Jaktinib
- NOAEL ([1]; 28 days): 18.3 mg/kg
- NOAEL ([1]; Beagle dogs, oral, 28 days): 18.3 mg/kg/day
- drug exposure ([2]; female rats, day 28): 51893 ± 20625 ng·h/mL
- drug exposure ([2]; female rats, first day): 60887 ± 21040 ng·h/mL
- drug exposure ([2]; male rats, day 28): 46522 ± 17149 ng·h/mL
- drug exposure ([2]; male rats, first day): 50799 ± 10124 ng·h/mL
- AUC0-t ([3]; Female): 67600 ± 27600 ng·h/mL
- AUC0-∞ ([3]; Female): 67800 ± 27800 ng·h/mL
- Cmax ([3]; Female): 11000 ± 4220 ng/mL
- Tmax ([3]; Female): 1.0 h
- t1/2 ([3]; Female): 1.81 ± 1.55 h
- AUC0-t ([3]; Male): 35700 ± 13500 ng·h/mL
- AUC0-∞ ([3]; Male): 36000 ± 13800 ng·h/mL
- Cmax ([3]; Male): 6340 ± 1230 ng/mL
- Tmax ([3]; Male): 1.0 (1.0-2.0) h
- t1/2 ([3]; Male): 2.15 ± 0.62 h
- AUC0-t ([3]; Overall): 51700 ± 26100 ng·h/mL
- AUC0-∞ ([3]; Overall): 51900 ± 26200 ng·h/mL
- Cmax ([3]; Overall): 8670 ± 3770 ng/mL
- Tmax ([3]; Overall): 1.0 (1.0-6.0) h
- t1/2 ([3]; Overall): 1.98 ± 1.07 h
- NOAEL ([4]; 26 weeks): 30 mg/kg
- NOAEL ([4]; Wistar rats, oral, 26 weeks): 30 mg/kg/day

Source: publication PMC7849180 (Frontiers in Pharmacology, 2020)
